Laboratory results from patent publication US7186735B2, “Acylated arylcycloalkylamines and their use as pharmaceuticals” (Sanofi-Aventis Deutschland GmbH, priority 2002, dated 2007).
pEC50: −log10 of the molar value.

Biological target: eNOS promoter
Assay: Activation of eNOS transcription (eNOS promoter-luciferase reporter gene assay)
Type: cell-based
Details: human endothelial cell line stably transfected with eNOS promoter-luciferase construct; 18 h incubation; EC50 determined graphically from TIR vs concentration; read-out: eNOS transcription induction ratios EC50
Protocol: Determination of Activation of eNOS Transcription
Activation of eNOS transcription was determined as described in detail in Li et al., “Activation of protein kinase C alpha and/or epsilon enhances transcription of the human endothelial nitric oxide synthase gene”, Mol. Pharmacol. 53 (1998) 630, the content of which is incorporated herein by reference.
Briefly, a 3.5 kB long fragment 5′ of the starting codon of the eNOS gene was cloned, sequenced and cloned in firefly luciferase expression plasmids to monitor activation of the eNOS promoter by reporter gene activity. A human endothelial cell line stable transfected and expressing this promoter-reporter construct was used for compound testing. Cells were incubated for 18 h with compounds.
All compounds were dissolved in sterile dimethyl sulfoxide (DMSO). A final concentration of 0.5% DMSO in complete medium was allowed. Induction of reporter gene expression in these cells was measured using a standard luciferase assay system (Promega, Cat. No E150) according to the manufacturer's instructions. Luciferase induction in cells incubated with compounds were compared to those incubated with solvent alone. The ratio of both activities (transcription induction ratio, TIR) was plotted as a function of compound concentration. Typically, TIR values started at low concentrations at a ratio of 1, indicating no compound effect, and extended up to a maximum TIR value TIR(max) which indicates the increase of the eNOS transcription. EC50 values of transcription induction ratios as a function of compound concentration were determined graphically.

Compound | pEC50
Cc1cc(C)c(C(=O)NC2CC2c2ccccc2)c(N)n1 (racemic) [Example 33] | 4.92
Cc1nc2ccc(C(=O)N[C@@H]3C[C@H]3c3ccccc3)cc2[nH]1 (racemic) [Example 18] | 6.48
Cc1nc(C)c(C(=O)N[C@@H]2C[C@H]2c2ccccc2)s1 (racemic) [Example 23] | 6.22
O=C(N[C@@H]1C[C@H]1c1ccccc1)c1ccc(F)cc1 (relative stereo) [Example 39, 4-fluoro-N-(trans-2-phenylcyclopropyl)benzamide] | 6.72
O=C(NC1CC1c1ccccc1)c1cccc2[nH]ccc12 (racemic) [Example 31] | 6.33
Cc1ccc(C(=O)NC2CC2c2ccccc2)s1 (racemic) [Example 37] | 6.59
O=C(N[C@@H]1C[C@H]1c1ccccc1)c1ccc(F)cc1 (relative stereo) [Example 41, 4-Fluoro-N-(trans-2-phenylcyclopropyl)benzamide] | 6.74
O=C(NC1CC1c1ccccc1)c1cccc(Cl)c1Cl (racemic) [Example 34] | 5.92
CS(=O)(=O)Nc1cccc(C(=O)N[C@@H]2C[C@H]2c2ccccc2)c1 (racemic) [Example 8] | 5.70
O=C(N[C@@H]1C[C@H]1c1ccccc1)c1cccc(N2CCOCC2)c1 (racemic) [Example 16] | 4.49
O=C(N[C@@H]1C[C@H]1c1ccccc1)c1ccc2[nH]ccc2c1 (racemic) [Example 30] | 7.00
Cc1ccc(C(=O)N[C@@H]2C[C@H]2c2ccccc2)c(C)n1 (racemic) [Example 4] | 6.48
Cc1nc(C2CC2)sc1C(=O)N[C@@H]1C[C@H]1c1ccccc1 (racemic) [Example 3] | 6.52
Nc1ncccc1C(=O)N[C@@H]1C[C@H]1c1ccccc1 (racemic) [Example 24] | 6.02
O=C(N[C@@H]1C[C@H]1c1ccccc1)c1ccc(N2CCOCC2)nc1 (racemic) [Example 9] | 5.46
O=C(N[C@@H]1C[C@H]1c1ccccc1)c1cnc2c(c1)CCCC2 (racemic) [Example 10] | 5.29
O=C(N[C@@H]1C[C@H]1c1ccccc1)c1ccc2cc[nH]c2c1 (racemic) [Example 29] | 7.00
CC(C)S(=O)(=O)c1csc(C(=O)N[C@@H]2C[C@H]2c2ccccc2)c1Cl (racemic) [Example 19] | 6.35
Cc1cc(C(=O)N[C@@H]2C[C@H]2c2ccccc2)c(C)n1Cc1ccncc1 (racemic) [Example 22] | 4.62

Compound | pEC50
COCc1ccc(C(=O)N[C@@H]2C[C@H]2c2ccccc2)cn1 (racemic) [Example 27] | 5.37
CN1CCN(c2cccc(C(=O)N[C@@H]3C[C@H]3c3ccccc3)c2)CC1 (racemic) [Example 15] | 4.23
Cc1nc(C)c(C(=O)N[C@@H]2C[C@H]2c2ccccc2)o1 (racemic) [Example 1] | 4.74
O=C(N[C@@H]1C[C@H]1c1ccccc1)c1cccc(N2CCCCC2)c1 (racemic) [Example 14] | 4.96
Cc1ccc(C(=O)N[C@@H]2C[C@H]2c2ccccc2)cc1NS(C)(=O)=O (racemic) [Example 7] | 5.74
O=C(N[C@@H]1C[C@H]1c1ccccc1)c1cnn(-c2ccccc2)c1C(F)(F)F (racemic) [Example 21] | 6.62
O=C(N[C@@H]1C[C@H]1c1ccccc1)c1cccc(N2CCCC2)c1 (racemic) [Example 13] | 5.89
COc1ccc(C(=O)N[C@@H]2C[C@H]2c2ccccc2)cn1 (racemic) [Example 11] | 6.11
CN(C)c1cccc(C(=O)NC2CC2c2ccccc2)c1 (racemic) [Example 32] | 5.74
Cc1cc(C(=O)N[C@@H]2C[C@H]2c2ccccc2)c(C)n1Cc1cccs1 (racemic) [Example 17] | > 8.00
Cc1ccc(C(=O)N[C@@H]2C[C@H]2c2ccccc2)cn1 (racemic) [Example 25] | 5.96
Cc1ncc(C(=O)N[C@@H]2C[C@H]2c2ccccc2)s1 (racemic) [Example 12] | 5.00
O=C(N[C@@H]1C[C@H]1c1ccccc1)c1ccc(F)cc1 (relative stereo) [Example 40, 4-Fluoro-N-(trans-2-phenylcyclopropyl)benzamide] | 5.82
O=C(NC1CC1c1ccccc1)c1ccc(F)cc1F (racemic) [Example 36] | 6.51
Cc1ccc(C(=O)N[C@@H]2C[C@H]2c2ccccc2)c(Cl)n1 (racemic) [Example 26] | 6.54
Nc1nccnc1C(=O)N[C@@H]1C[C@H]1c1ccccc1 (racemic) [Example 28] | 6.37
O=C(NC1CC1c1ccccc1)c1ccc(Cl)s1 (racemic) [Example 38] | 6.64
Cc1c(C(=O)N[C@@H]2C[C@H]2c2ccccc2)cnn1-c1ccccc1 (racemic) [Example 20] | 6.96
Cc1nc(N)c(C(=O)N[C@@H]2C[C@H]2c2ccccc2)nc1C (racemic) [Example 5] | 6.80
